According to patent publication US20260285850A1, “SUBSTITUTED OXAZOLIDINONES AND IMIDAZOLINONES AS HERBICIDES” (FMC CORPORATION, priority 2023, published 2026):

Key:
Type in all cases: in vivo
[1] = system: green foxtail (Setaria viridis); assay: Test A postemergence application, visual injury rating 0-100
How it was run: (§1)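 Visual injury, scored 0-100 (100 = complete control) against untreated plants, 10 days after greenhouse treatment. Test chemicals in surfactant-containing non-phytotoxic solvent were applied in loam soil and sand, as a preemergence soil spray on seeds or postemergence to plants at the one- to two-leaf stage.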

[2] = system: corn (Zea mays); assay: as above
How it was run: as §1

[3] = system: palmer (palmer amaranth, palmer pigweed, Amaranthus palmeri); assay: as above
How it was run: as §1

[4] = system: ryegrass, Italian (italian ryegrass, Lolium multiflorum); assay: as above
How it was run: as §1

[5] = system: galium (catchweed bedstraw, Galium aparine); assay: as above
How it was run: as §1

[6] = system: blackgrass (Alopecurus myosuroides); assay: as above
How it was run: as §1

[7] = system: ragweed (common ragweed, Ambrosia artemisiifolia); assay: as above
How it was run: as §1

[8] = system: soybean (Glycine max); assay: as above
How it was run: as §1

[9] = system: barnyardgrass (Echinochloa crus-galli); assay: as above
How it was run: as §1

[10] = system: oat, wild (wild oat, Avena fatua); assay: as above
How it was run: as §1

[11] = system: wheat (Triticum aestivum); assay: as above
How it was run: as §1

[12] = system: kochia (Bassia scoparia); assay: as above
How it was run: as §1

[13] = system: green foxtail (Setaria viridis); assay: Test A preemergence soil spray, visual injury rating 0-100; details: 10 days
How it was run: as §1

[14] = system: corn (Zea mays); assay: as above; details: 10 days
How it was run: as §1

[15] = system: palmer (palmer amaranth, palmer pigweed, Amaranthus palmeri); assay: as above; details: 10 days
How it was run: as §1

[16] = system: ryegrass, Italian (italian ryegrass, Lolium multiflorum); assay: as above; details: 10 days
How it was run: as §1

[17] = system: blackgrass (Alopecurus myosuroides); assay: as above; details: 10 days
How it was run: as §1

[18] = system: ragweed (common ragweed, Ambrosia artemisiifolia); assay: as above; details: 10 days
How it was run: as §1

[19] = system: soybean (Glycine max); assay: as above; details: 10 days
How it was run: as §1

[20] = system: barnyardgrass (Echinochloa crus-galli); assay: as above; details: 10 days
How it was run: as §1

[21] = system: oat, wild (wild oat, Avena fatua); assay: as above; details: 10 days
How it was run: as §1

[22] = system: wheat (Triticum aestivum); assay: as above; details: 10 days
How it was run: as §1

[23] = system: kochia (Bassia scoparia); assay: as above; details: 10 days
How it was run: as §1

[24] = system: rice (Oryza sativa); assay: Test B flooded paddy test, visual plant response rating 0-100; details: 250 g ai/ha, Flood, applied to paddy water, evaluated after 13 days
How it was run: (§2)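 Visual scores versus untreated controls were recorded 13 days after treatment of greenhouse-held plants. At the 2-leaf stage, pots were flooded 3 cm above the soil surface and compounds added straight to the water.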

[25] = system: ducksalad (Heteranthera limosa); assay: as above; details: 250 g ai/ha, Flood, applied to paddy water, evaluated after 13 days
How it was run: as §2

[26] = system: barnyardgrass (Echinochloa crusgalli); assay: as above; details: 250 g ai/ha, Flood, applied to paddy water, evaluated after 13 days
How it was run: as §2

[27] = system: sedge, umbrella (small-flower umbrella sedge, Cyperus difformis); assay: as above; details: 250 g ai/ha, Flood, applied to paddy water, evaluated after 13 days
How it was run: as §2

[28] = 62 g ai/ha, postemergence, 10 days, 0 = no effect, 100 = complete control
[29] = Postemergence, 16 g ai/ha, greenhouse 10 days, 0 no effect, 100 complete control
[30] = 62 g ai/ha, 0 = no effect, 100 = complete control

COC(=O)C1=CCC(NC(=O)C2(C)CN(c3cc(F)c(F)c(F)c3)C(=O)O2)C1 (mixture of isomers) [Compound 163]
10: Pigweed, Palmer plant response rating (0 to 100 scale) [3, 29] | Ragweed plant response rating (0-100) [18, 30]
40: Galium plant response rating (0 to 100 scale) [5, 29]
20: Blackgrass plant response rating (0 to 100 scale) [6, 29] | Kochia plant response rating (0 to 100 scale) [12, 29] | Foxtail, Green plant response rating (0-100) [13, 30] | Barnyardgrass plant response rating (0-100) [20, 30] | Oat, Wild plant response rating (0-100) [21, 30] | Wheat plant response rating ([22]; 16 g ai/ha, 0 to 100 scale)
85: Plant response rating, Ducksalad (0 to 100 scale, 0 is no effect and 100 is complete control) [25] | Plant response rating, Sedge, Umbrella (0 to 100 scale, 0 is no effect and 100 is complete control) [27]
55: Plant response rating, Barnyardgrass (0 to 100 scale, 0 is no effect and 100 is complete control) [26]
60: Ryegrass, Italian plant response rating (0 to 100 scale) [4, 29] | Plant response rating, Rice (0 to 100 scale, 0 is no effect and 100 is complete control) [24]
90: Foxtail, Green plant response rating (0-100) [1, 28] | Corn plant response rating (0 to 100 scale) [2, 29] | Oat, Wild plant response rating (0-100) [10, 28] | Kochia plant response rating (0-100) [12, 28]
50: Foxtail, Green plant response rating (0 to 100 scale) [1, 29] | Soybean plant response rating (0 to 100 scale) [8, 29]
30: Oat, Wild plant response rating (0 to 100 scale) [10, 29] | Wheat plant response rating (0 to 100 scale) [11, 29]
0: Ragweed plant response rating (0-100) [7, 28] | Ragweed plant response rating (0 to 100 scale) [7, 29] | Foxtail, Green plant response rating ([13]; 16 g ai/ha, 0 to 100 scale) | Corn plant response rating ([14]; 16 g ai/ha, 0 to 100 scale) | Pigweed, Palmer plant response rating ([15]; 16 g ai/ha, 0 to 100 scale) | Pigweed, Palmer plant response rating (0-100) [15, 30] | Ryegrass, Italian plant response rating ([16]; 16 g ai/ha, 0 to 100 scale) | Blackgrass plant response rating ([17]; 16 g ai/ha, 0 to 100 scale) | Blackgrass plant response rating (0-100) [17, 30] | Ragweed plant response rating ([18]; 16 g ai/ha, 0 to 100 scale) | Soybean plant response rating ([19]; 16 g ai/ha, 0 to 100 scale) | Soybean plant response rating (0-100) [19, 30] | Barnyardgrass plant response rating ([20]; 16 g ai/ha, 0 to 100 scale) | Oat, Wild plant response rating ([21]; 16 g ai/ha, 0 to 100 scale) | Kochia plant response rating ([23]; 16 g ai/ha, 0 to 100 scale) | Kochia plant response rating (0-100) [23, 30]
80: Pigweed, Palmer plant response rating (0-100) [3, 28] | Ryegrass, Italian plant response rating (0-100) [4, 28] | Ryegrass, Italian plant response rating (0-100) [16, 30] | Wheat plant response rating (0-100) [22, 30]
70: Galium plant response rating (0-100) [5, 28] | Blackgrass plant response rating (0-100) [6, 28] | Soybean plant response rating (0-100) [8, 28] | Barnyardgrass plant response rating (0 to 100 scale) [9, 29] | Wheat plant response rating (0-100) [11, 28] | Corn plant response rating (0-100) [14, 30]
100: Corn plant response rating (0-100) [2, 28] | Barnyardgrass plant response rating (0-100) [9, 28]
